These molecules were tested on beta-TC6 cells (assay: Insulin HTRF assay (relative activity Ar) in beta-TC6 cells). Settings: Mus musculus, Beta-TC6, 4 h, insulin HTRF, supernatant of beta-TC6 cells, incubation with test compound at 37°C for 2, 3, 4h; read-out: Ar (relative activity).
Type: cell-based, mouse
In short: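 beta-TC6 cells (15k/well, seeded 24 or 48 h) washed, then exposed to compound in induction buffer (0.5% DMSO final) for 2, 3 or 4 h at 37°C.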
For `CNc1nc2cnc(-c3ccc(O)c(OC)c3)cc2n1Cc1ccc(OC)c(OC)c1` [Compound 879, 4-[1-[(3,4-dimethoxyphenyl)methyl]-2-(methylamino)imidazo[4,5-c]pyridin-6-yl]-2-methoxy-phenol], the Emax was 30 to 50%.
`COc1ccc(CNc2nc3cnc(Nc4cc(OC)c(OC)c(OC)c4)cc3n2C)cc1OC` [Compound 599, N2-[(3,4-dimethoxyphenyl)methyl]-1-methyl-N6-(3,4,5-trimethoxyphenyl)imidazo[4,5-c]pyridine-2,6-diamine] gave an Emax of 50 to 100%.
Work on `COc1ccc(Nc2cc3[nH]c(-c4ccc(C(=O)N(C)C)cc4)cc3cn2)c(OC)c1` [Compound 20, 4-[6-(2,4-dimethoxyanilino)-1H-pyrrolo[3,2-c]pyridin-2-yl]-N,N-dimethyl-benzamide] yielded an Emax of 50 to 100%.
Molecule `CN(C)c1cccc(Nc2nccc3[nH]c(-c4ccccc4)nc23)c1` [Compound 331, N1,N1-dimethyl-N3-(2-phenyl-1H-imidazo[4,5-c]pyridin-4-yl)benzene-1,3-diamine] has an Emax of 50 to 100%.
For `Cn1c(-c2cccnc2)cc2cnc(Nc3ccc4c(c3)OCO4)cc21` [Compound 93, N-(1,3-benzodioxol-5-yl)-1-methyl-2-(3-pyridyl)pyrrolo[3,2-c]pyridin-6-amine], the Emax was 50 to 100%.
`Cn1c(-c2ccccc2)cc2c(Nc3ccccn3)nccc21` [Compound 327, 1-methyl-2-phenyl-N-(2-pyridyl)pyrrolo[3,2-c]pyridin-4-amine] showed an Emax of 50 to 100%.
`COc1ccccc1-c1cc2c(N3CCOCC3)nccc2[nH]1` [Compound 193, 4-[2-(2-methoxyphenyl)-1H-pyrrolo[3,2-c]pyridin-4-yl]morpholine] showed an Emax of 50 to 100%.
For `Cc1cccc(Nc2cc3[nH]c(-c4ccc(C(=O)N(C)C)cc4)cc3cn2)c1` [Compound 28, N,N-dimethyl-4-[6-(3-methylanilino)-1H-pyrrolo[3,2-c]pyridin-2-yl]benzamide], the Emax was 50 to 100%.
`COc1ccc(Nc2cc3[nH]c(-c4ccccn4)cc3cn2)c(C)c1` [Compound 63, N-(4-methoxy-2-methyl-phenyl)-2-(2-pyridyl)-1H-pyrrolo[3,2-c]pyridin-6-amine] showed an Emax of 50 to 100%.
In the case of `COc1cncc(-c2cc3[nH]c(NCC4CCCO4)nc3cn2)c1` (stereo not drawn) [Compound 881, 6-(5-methoxy-3-pyridyl)-N-(tetrahydrofuran-2-ylmethyl)-1H-imidazo[4,5-c]pyridin-2-amine], the Emax is reported as 0 to 30%.
`COc1cccc(Nc2nccc3c2cc(-c2ccc(C(=O)N(C)C)cc2)n3C)c1` [Compound 212, 4-[4-(3-methoxyanilino)-1-methyl-pyrrolo[3,2-c]pyridin-2-yl]-N,N-dimethyl-benzamide] showed an Emax of 30 to 50%.
`COc1ccc(-c2nc3cnc(Nc4cc(OC)c(OC)c(OC)c4)cc3n2C)cc1OC` [Compound 716, 2-(3,4-dimethoxyphenyl)-1-methyl-N-(3,4,5-trimethoxyphenyl)imidazo[4,5-c]pyridin-6-amine] showed an Emax of 50 to 100%.
For `CNc1nc2cnc(Nc3ccc(OC)c(OC)c3)cc2n1CCOC` [Compound 495, N6-(3,4-dimethoxyphenyl)-1-(2-methoxyethyl)-N2-methyl-imidazo[4,5-c]pyridine-2,6-diamine], the Emax was 30 to 50%.
Work on `COc1ccc(Nc2nccc3[nH]c(-c4cccc(F)c4)cc23)cc1O` [Compound 204, 5-[[2-(3-fluorophenyl)-1H-pyrrolo[3,2-c]pyridin-4-yl]amino]-2-methoxy-phenol] yielded an Emax of 50 to 100%.
For `Cn1c(NCC2CC2)nc2cnc(Nc3ccc(C(F)(F)F)cc3)cc21` [Compound 763, N2-(cyclopropylmethyl)-1-methyl-N6-[4-(trifluoromethyl)phenyl]imidazo[4,5-c]pyridine-2,6-diamine], the Emax was 0 to 30%.
With `Cn1c(-c2cccnc2)cc2cnc(Nc3cccnc3)cc21` [Compound 87, 1-methyl-N,2-bis(3-pyridyl)pyrrolo[3,2-c]pyridin-6-amine] the Emax was 50 to 100%.
Molecule `CC(=O)c1cccc(Nc2cc3c(cn2)nc(NCc2ccccc2)n3C)c1` [Compound 628, 1-[3-[[2-(benzylamino)-1-methyl-imidazo[4,5-c]pyridin-6-yl]amino]phenyl]ethanone] has an Emax of 30 to 50%.
In the case of `Cn1c(-c2cccc(Cl)c2)cc2c(N3CCOCC3)nccc21` [Compound 195, 4-[2-(3-chlorophenyl)-1-methyl-pyrrolo[3,2-c]pyridin-4-yl]morpholine], the Emax is reported as 30 to 50%.
`CN(C)C(=O)c1ccc(-c2cc3c(Nc4cccc(N(C)C)c4)nccc3n2C)cc1` [Compound 218, 4-[4-[3-(dimethylamino)anilino]-1-methyl-pyrrolo[3,2-c]pyridin-2-yl]-N,N-dimethyl-benzamide] gave an Emax of 50 to 100%.
In the case of `CC(=O)Nc1ccc(Nc2nccc3c2cc(-c2ccsc2)n3C)cc1` [Compound 270, N-[4-[[1-methyl-2-(3-thienyl)pyrrolo[3,2-c]pyridin-4-yl]amino]phenyl]acetamide], the Emax is reported as 50 to 100%.
In the case of `COc1ccc(Nc2nccc3c2cc(-c2ccc(C(=O)N(C)C)cc2)n3C)cc1OC` [Compound 215, 4-[4-(3,4-dimethoxyanilino)-1-methyl-pyrrolo[3,2-c]pyridin-2-yl]-N,N-dimethyl-benzamide], the Emax is reported as 50 to 100%.
With `CN1CCN(c2ccc(Nc3nccc4[nH]c(-c5cccc(F)c5)cc34)cc2)CC1` [Compound 201, 2-(3-fluorophenyl)-N-[4-(4-methylpiperazin-1-yl)phenyl]-1H-pyrrolo[3,2-c]pyridin-4-amine] the Emax was 30 to 50%.
Molecule `CC(=O)c1cccc(Nc2nccc3c2cc(-c2ccsc2)n3C)c1` [Compound 288, 1-[3-[[1-methyl-2-(3-thienyl)pyrrolo[3,2-c]pyridin-4-yl]amino]phenyl]ethanone] has an Emax of 30 to 50%.
Molecule `CN(C)C(=O)c1ccc(Nc2cc3c(cn2)nc(-c2ccco2)n3C)cc1` [Compound 711, 4-[[2-(2-furyl)-1-methyl-imidazo[4,5-c]pyridin-6-yl]amino]-N,N-dimethyl-benzamide] has an Emax of 50 to 100%.
Work on `COc1cc(Nc2cc3c(cn2)nc(NCC2CCCO2)n3C)cc(OC)c1OC` (stereo not drawn) [Compound 641, 1-methyl-N2-(tetrahydrofuran-2-ylmethyl)-N6-(3,4,5-trimethoxyphenyl)imidazo[4,5-c]pyridine-2,6-diamine] yielded an Emax of 30 to 50%.
`CN1CCN(c2cc3[nH]c(-c4cccc(C(F)(F)F)c4)cc3cn2)CC1` [Compound 4, 6-(4-methylpiperazin-1-yl)-2-[3-(trifluoromethyl)phenyl]-1H-pyrrolo[3,2-c]pyridine] gave an Emax of 30 to 50%.
Work on `CC(=O)Nc1ccc(Nc2nccc3c2cc(-c2ccc(C(=O)N(C)C)cc2)n3C)cc1` [Compound 211, 4-[4-(4-acetamidoanilino)-1-methyl-pyrrolo[3,2-c]pyridin-2-yl]-N,N-dimethyl-benzamide] yielded an Emax of 30 to 50%.
Molecule `c1ccc(-c2nc3cnccc3[nH]2)nc1` [Compound 742, 2-(2-pyridyl)-1H-imidazo[4,5-c]pyridine] has an Emax of 30 to 50%.
`CN1CCN(c2ccc(Nc3nccc4c3cc(-c3cccc(F)c3)n4C)cc2)CC1` [Compound 209, 2-(3-fluorophenyl)-1-methyl-N-[4-(4-methylpiperazin-1-yl)phenyl]pyrrolo[3,2-c]pyridin-4-amine] was tested, and the Emax was 50 to 100%.
With `Cc1cccc(CNc2nc3cnc(-c4ccc(N(C)C)cc4)cc3n2C)c1` [Compound 802, 6-(4-dimethylaminophenyl)-1-methyl-N-(m-tolylmethyl)imidazo[4,5-c]pyridin-2-amine] the Emax was 50 to 100%.
With `COc1ccc(Nc2nccc3[nH]c(-c4cccc(OC)c4)nc23)cc1` [Compound 372, 2-(3-methoxyphenyl)-N-(4-methoxyphenyl)-1H-imidazo[4,5-c]pyridin-4-amine] the Emax was 50 to 100%.
`COc1ccc(-c2nc3c(NCc4ccccc4)nccc3[nH]2)cc1OC` [Compound 347, N-benzyl-2-(3,4-dimethoxyphenyl)-1H-imidazo[4,5-c]pyridin-4-amine] showed an Emax of 50 to 100%.
Work on `COc1ccccc1-c1cc2c(Nc3ccc4c(c3)OCO4)nccc2[nH]1` [Compound 296, N-(1,3-benzodioxol-5-yl)-2-(2-methoxyphenyl)-1H-pyrrolo[3,2-c]pyridin-4-amine] yielded an Emax of 30 to 50%.
`CNc1nc2cnc(Nc3cccnc3)cc2n1-c1ccccc1` [Compound 507, N2-methyl-1-phenyl-N6-(3-pyridyl)imidazo[4,5-c]pyridine-2,6-diamine] showed an Emax of 30 to 50%.
`Cn1cc(-c2cc3cnc(Nc4ccncn4)cc3n2C)cn1` [Compound 147, 1-methyl-2-(1-methylpyrazol-4-yl)-N-pyrimidin-4-yl-pyrrolo[3,2-c]pyridin-6-amine] was tested, and the Emax was 50 to 100%.
`CS(=O)(=O)c1ccc(Nc2nccc3[nH]c(-c4cccc(F)c4)cc23)cc1` [Compound 207, 2-(3-fluorophenyl)-N-(4-methylsulfonylphenyl)-1H-pyrrolo[3,2-c]pyridin-4-amine] gave an Emax of 50 to 100%.
`FC(F)(F)c1cccc(Nc2nccc3[nH]c(-c4ccccc4Cl)nc23)c1` [Compound 462, 2-(2-chlorophenyl)-N-[3-(trifluoromethyl)phenyl]-1H-imidazo[4,5-c]pyridin-4-amine] gave an Emax of 0 to 30%.
`COc1cccc(-c2cc3c(Nc4ccc(NC(C)=O)cc4)nccc3[nH]2)c1` [Compound 306, N-[4-[[2-(3-methoxyphenyl)-1H-pyrrolo[3,2-c]pyridin-4-yl]amino]phenyl]acetamide] showed an Emax of 50 to 100%.
`CC(=O)N(C)c1cccc(-c2cc3cnc(Nc4ccc5c(c4)OCO5)cc3n2C)c1` [Compound 169, N-[3-[6-(1,3-benzodioxol-5-ylamino)-1-methyl-pyrrolo[3,2-c]pyridin-2-yl]phenyl]-N-methyl-acetamide] was tested, and the Emax was 30 to 50%.
In the case of `CC(=O)N(C)c1cccc(-c2cc3cnc(Nc4cccc(N(C)C)c4)cc3n2C)c1` [Compound 165, N-[3-[6-[3-(dimethylamino)anilino]-1-methyl-pyrrolo[3,2-c]pyridin-2-yl]phenyl]-N-methyl-acetamide], the Emax is reported as greater than 100%.
Work on `CNc1nc2cnc(-c3cccc(N)c3)cc2n1Cc1ccc(OC)c(OC)c1` [Compound 659, 6-(3-aminophenyl)-1-[(3,4-dimethoxyphenyl)methyl]-N-methyl-imidazo[4,5-c]pyridin-2-amine] yielded an Emax of 30 to 50%.
`Fc1cccc(-c2cc3c(cn2)ncn3-c2ccccc2)c1` [Compound 733, 6-(3-fluorophenyl)-1-phenyl-imidazo[4,5-c]pyridine] showed an Emax of 30 to 50%.
